{"source": "paper PMC3827994", "about": "“Novel preclinical models of topical PrEP pharmacodynamics provide rationale for combination of drugs with complementary properties” (Retrovirology, 2013)", "key": {"HIV-1Ba-L [1]": {"tested_on": "HIV-1Ba-L", "test": "JT-CCR5 cells challenged with HIV-1Ba-L in the presence of drug (p24 ELISA)", "format": "cell-based", "procedure": "(§1) JT-CCR5 T cells in 24-well plates (1×10^6 cells/well) were exposed to varying concentrations of drugs diluted in complete medium for 24 h. The cells were then washed with 10 mL of medium, medium containing 10% human seminal plasma (SP), or not washed and then washed cells were resuspended in complete medium prior to transfer to round-bottomed 96-well plates and exposed to 10^3 TCID50 (50% tissue culture infective dose) HIV-1Ba-L for 2 h. Plates were centrifuged at 500 g for 5 min and supernatants were removed prior to each of 3 washing steps with 200 μL of medium. Cells were subsequently cultured in 200 μL complete medium and HIV replication was assessed 6 d post-infection by measuring p24 antigen by ELISA [34]."}, "HIV-1Ba-L [2]": {"tested_on": "HIV-1Ba-L", "test": "Intracellular drug retention: JT-CCR5 cells exposed to drug 24 h, washed with medium or 10% seminal plasma, then HIV-1Ba-L challenge", "format": "cell-based", "details": "for protection of washed cells at the highest concentrations tested: 10 and 100 μM, cells washed with medium or SP; for antiviral activity after washing cells with medium or SP prior to challenge: JT-CCR5, 24 h drug exposure, TDF at >= 0.1 μM", "procedure": "as §1"}, "HIV-1Ba-L [3]": {"tested_on": "HIV-1Ba-L", "test": "Co-culture model: drug-exposed human ectocervical explants washed, minced, co-cultured with JT-CCR5 cells, HIV-1Ba-L challenge", "format": "cell-based", "procedure": "(§2) Cervical tissue was collected from pre-menopausal women undergoing therapeutic hysterectomies at the Albert Einstein–Montefiore Weiler Hospital (Bronx, NY, USA) under an IRB exempt protocol. Ectocervical tissue was cut into explants of approximately 3×3×3 mm prior to 24 h exposure to panel of unformulated drugs in 24-well plates. Extracellular free drug was removed by immersing explants in phosphate buffered saline (PBS) containing Ca^2+ before mincing explants into fragments smaller than 1 mm, which were resuspended in 200 μL complete medium and co-cultured with JT-CCR5 cells (1×10^5 cells/well) in triplicate wells of round-bottomed 96-well plates. Co-cultures were incubated at 37°C for 72 h to allow released drug to be transferred from the tissue to T cells prior to challenge with HIV-1Ba-L (approximately 10^3 TCID50). The inoculum was removed and co-cultured tissue and cells washed thrice with medium. HIV replication was assessed by measuring p24 levels by ELISA (Figure 2a)."}, "HIV-1Ba-L [4]": {"tested_on": "HIV-1Ba-L", "test": "Antiviral activity of macaque CVL in TZM-bl cells challenged with HIV-1Ba-L (luciferase)", "format": "cell-based", "details": "CVL diluted 1:10 and 1:100, Days 7 and 14 post IVR insertion", "procedure": "TZM-bl cells were plated at 3x10^4/well and allowed to adhere overnight before exposure to 10^3 TCID50 HIV-1Ba-L in the presence of CVL diluted 1:10 and 1:100 in complete DMEM in triplicate wells. Virus and drugs were left in culture for 48 h at 37°C and then removed by washing once with 200 μl PBS. Cells were lysed in 100 μl luciferase cell culture lysis reagent (Promega) and stored at -80°C until assessed for luciferase activity using luciferase assay buffer (Promega). Alternatively, TZM-bl cells were plated at 5x10^3/well in polyester transwell™ inserts with 1.0 μm pore size (Corning) and exposed basolaterally to CVL diluted 1:20 in complete DMEM overnight before apical challenge with the CCR5-tropic subtype C HIV isolate 97USNG30 (0, 10 and 100 TCID50). Wells with luciferase activity above background average + 2 standard deviations (cells exposed to CVL but no virus) were considered positive. To avoid contamination, frozen CVL was Gamma-irradiated on dry ice (1KGy) prior to use."}, "TZM-bl cells": {"tested_on": "TZM-bl cells", "test": "In vitro activity of IQP-0528 in TZM-bl cells", "format": "cell-based", "details": "not shown"}, "HIV-1Ba-L [5]": {"tested_on": "HIV-1Ba-L", "test": "NHP cervical biopsies co-cultured with PHA-activated human PBMC, HIV-1Ba-L challenge (p24 ELISA)", "format": "cell-based", "procedure": "as §2\nProximal and distal biopsies were collected and placed in 200 μL of complete medium and shipped to the Herold laboratory at 4°C. Biopsies were minced without washing and co-cultured with activated human PBMC in the presence of culture medium used during transport. Challenge and assessment of HIV replication were performed as described for human cervical explant tissue (Figure 2a)."}, "[6]": {"details": "pig, in vivo", "protocol": "A 14-day IQP-0528 IVR biodistribution study using pigtail macaque monkeys was performed following protocols approved by the CDC Institutional Animal Care and Use Committee according to the Guide for the Care and Use of Laboratory Animals as previously described [36]. Briefly, animals were anesthetized with ketamine (3-10 mg/kg) prior to all collection procedures. A total of six macaques were used with two animals receiving placebo IVR and four animals receiving IQP-0528 (10% w/w) IVR. A pediatric speculum and forceps were used to insert IVRs in the posterior vagina proximal to the ectocervix on day 0 and left in place for 14 days. Tissue samples were collected with biopsy forceps (Miltex Townsend # 30–1445) near the vaginal introitus (distal to the ring) and the ectocervix (proximal to the ring) and shipped at 4°C to the Herold laboratory overnight. CVL samples were obtained by washing the vaginal vault with 5 mL normal saline; CVL samples were divided into aliquots, shipped and stored at -80°C.\nIQP-0528 in biological samples was extracted and analyzed using LC-MS/MS at the Center for Human Toxicology (Utah). The lower limit of quantification (LLOQ) for this assay was 1 ng/mL of matrix. To convert weight/weight concentrations of IQP-0528 (nanograms IQP-0528 per milligram of vaginal fluid or tissue) to molarity (μM), vaginal fluid and tissue densities of 1.0 g/mL were assumed."}, "HIV-1Ba-L [7]": {"tested_on": "HIV-1Ba-L", "test": "Parallel antiviral experiments with MVC in human PBMCs", "format": "cell-based", "details": "PHA-activated PBMCs; data not shown"}, "HIV": {"tested_on": "HIV", "set-up": "method as in PMID 16251317", "details": "drug present throughout the experiment ref 25; cited from earlier work"}, "[8]": {"details": "explant treated ex vivo, washed, co-cultured with JT-CCR5"}, "[9]": {"details": "macaques with 10% w/w IQP-0528 IVR, co-culture with human PBMC"}, "[10]": {"details": "Human immunodeficiency virus 1, 144 h; challenge in the presence of drug; means ± SEM; read-out: JT-CCR5 Infection IC50"}, "[11]": {"details": "Human immunodeficiency virus 1, 144 h; challenge in the presence of drug; means ± SEM; read-out: JT-CCR5 Infection IC90"}, "[12]": {"details": "Human immunodeficiency virus 1; drug concentration during 24 h explant exposure; means ± SEM; read-out: Co-culture JT-CCR5 & explant tissue IC50"}, "[13]": {"details": "Human immunodeficiency virus 1; drug concentration during 24 h explant exposure; means ± SEM; read-out: Co-culture JT-CCR5 & explant tissue IC90"}}, "note": "Where a name gives a salt, the structure may show the parent alone.", "data": [{"molecule": "Cc1cc(C)cc(C(=O)c2c(C(C)C)c(=O)[nH]c(=O)n2CC2CC2)c1", "note": "[IQP-0528]", "values": [{"measurement": "IC50", "setting": "HIV-1Ba-L [1]; challenge in the presence of drug; means ± SEM; read-out: JT-CCR5 Infection IC50", "value": "190 ± 70", "unit": "nM"}, {"measurement": "IC90", "setting": "HIV-1Ba-L [1]; challenge in the presence of drug; means ± SEM; read-out: JT-CCR5 Infection IC90", "value": "430 ± 160", "unit": "nM"}, {"measurement": "protection of washed cells at the highest concentrations tested", "setting": "HIV-1Ba-L [2]", "value": "neither IQP-0528 or MVC completely protected the cells from infection"}, {"measurement": "IC50", "setting": "HIV-1Ba-L [3]; drug concentration during 24 h explant exposure; means ± SEM; read-out: Co-culture JT-CCR5 & explant tissue IC50", "value": "2900 ± 700", "unit": "nM"}, {"measurement": "IC90", "setting": "HIV-1Ba-L [3]; drug concentration during 24 h explant exposure; means ± SEM; read-out: Co-culture JT-CCR5 & explant tissue IC90", "value": "10100 ± 700", "unit": "nM"}, {"measurement": "protection of co-cultured T cells by pretreated explant tissue", "setting": "HIV-1Ba-L [3]; [8]", "value": "significant protection"}, {"measurement": "protection in co-culture, fresh tissue vs tissue stored at -80°C", "setting": "HIV-1Ba-L [3]; tissue fresh or frozen 24 h or 7 days after drug treatment", "value": "protective under all of these conditions"}, {"measurement": "protection of TZM-bl cells challenged in the presence of CVL", "setting": "HIV-1Ba-L [4]", "value": "significantly protected from infection"}, {"measurement": "in vitro IC90 in TZM-bl cells", "setting": "TZM-bl cells", "value": 2.7, "unit": "ng/mL"}, {"measurement": "viral inhibition, distal biopsies, day 7", "setting": "HIV-1Ba-L [5]; [9]", "value": 42.3, "unit": "%"}, {"measurement": "viral inhibition, distal biopsies, day 14", "setting": "HIV-1Ba-L [5]; [9]", "value": 59.2, "unit": "%"}, {"measurement": "viral inhibition, proximal biopsies, day 7", "setting": "HIV-1Ba-L [5]; [9]", "value": 53.0, "unit": "%"}, {"measurement": "viral inhibition, proximal biopsies, day 14", "setting": "HIV-1Ba-L [5]; [9]", "value": 71.7, "unit": "%"}, {"measurement": "viral inhibition, biopsies of ring-treated macaques (range)", "setting": "HIV-1Ba-L [5]; proximal and distal biopsies, days 7 and 14", "value": "42-72%"}, {"measurement": "IQP-0528 concentration in CVL, D7, Mean ± SEM", "setting": "[6]", "value": "1360 ± 249", "unit": "µg/mL"}, {"measurement": "IQP-0528 concentration in CVL, D14, Mean ± SEM", "setting": "[6]", "value": "940 ± 250", "unit": "µg/mL"}, {"measurement": "IQP-0528 concentration in cervical tissue, Distal D7, Mean ± SEM", "setting": "[6]", "value": "0.85 ± 0.23 ng/mg of tissue"}, {"measurement": "IQP-0528 concentration in cervical tissue, Distal D14, Mean ± SEM", "setting": "[6]", "value": "14.65 ± 6.35 ng/mg of tissue"}, {"measurement": "IQP-0528 concentration in cervical tissue, Proximal D7, Mean ± SEM", "setting": "[6]", "value": "3.36 ± 1.36 ng/mg of tissue"}, {"measurement": "IQP-0528 concentration in cervical tissue, Proximal D14, Mean ± SEM", "setting": "[6]", "value": "28.08 ± 5.39 ng/mg of tissue"}]}, {"molecule": "CC(C)OC(=O)OCOP(=O)(CO[C@H](C)Cn1cnc2c(N)ncnc21)OCOC(=O)OC(C)C", "note": "[TDF, Tenofovir disoproxil fumarate]", "values": [{"measurement": "IC50", "setting": "HIV-1Ba-L [1]; [10]", "value": "40 ± 10", "unit": "nM"}, {"measurement": "IC90", "setting": "HIV-1Ba-L [1]; [11]", "value": "130 ± 20", "unit": "nM"}, {"measurement": "antiviral activity after washing cells with medium or SP prior to challenge", "setting": "HIV-1Ba-L [2]", "value": "retained its antiviral activity"}, {"measurement": "IC50", "setting": "HIV-1Ba-L [3]; [12]", "value": "> 10000", "unit": "nM"}, {"measurement": "IC90", "setting": "HIV-1Ba-L [3]; [13]", "value": "> 10000", "unit": "nM"}, {"measurement": "protection of co-cultured T cells by pretreated explant tissue", "setting": "HIV-1Ba-L [3]; [8]", "value": "not protected from viral infection"}]}, {"molecule": "Maraviroc [MVC]", "values": [{"measurement": "antiviral activity", "setting": "HIV-1Ba-L [1]; cells washed 2 h after viral inoculation, drug not re-added", "value": "only active in the low μM range"}, {"measurement": "IC50", "setting": "HIV-1Ba-L [1]; read-out: JT-CCR5 Infection IC50; challenge in the presence of drug; means ± SEM", "value": "1980 ± 850", "unit": "nM"}, {"measurement": "IC90", "setting": "HIV-1Ba-L [1]; read-out: JT-CCR5 Infection IC90; challenge in the presence of drug; means ± SEM", "value": "54500 ± 13800", "unit": "nM"}, {"measurement": "protection of washed cells at the highest concentrations tested", "setting": "HIV-1Ba-L [2]", "value": "neither IQP-0528 or MVC completely protected the cells from infection"}, {"measurement": "antiviral activity after washing cells with medium or SP prior to challenge", "setting": "HIV-1Ba-L [2]", "value": "significantly reduced"}, {"measurement": "protection of co-cultured T cells by pretreated explant tissue", "setting": "HIV-1Ba-L [3]; [8]", "value": "failed to protect co-cultured T cells"}, {"measurement": "IC50", "setting": "HIV-1Ba-L [3]; read-out: Co-culture JT-CCR5 & explant tissue IC50; drug concentration during 24 h explant exposure; means ± SEM", "value": "> 100000", "unit": "nM"}, {"measurement": "IC90", "setting": "HIV-1Ba-L [3]; read-out: Co-culture JT-CCR5 & explant tissue IC90; drug concentration during 24 h explant exposure; means ± SEM", "value": "> 100000", "unit": "nM"}, {"measurement": "antiviral activity in human PBMCs compared to JT-CCR5 cells", "setting": "HIV-1Ba-L [7]", "value": "no difference in the antiviral activity"}, {"measurement": "antiviral activity", "setting": "HIV", "value": "low nanomolar range"}]}, {"molecule": "Cc1cc(C)c(Nc2ccnc(Nc3ccc(C#N)cc3)n2)c(C)c1", "note": "[DPV, Dapivirine]", "values": [{"measurement": "IC50", "setting": "HIV-1Ba-L [1]; [10]", "value": "10 ± 10", "unit": "nM"}, {"measurement": "IC90", "setting": "HIV-1Ba-L [1]; [11]", "value": "30 ± 20", "unit": "nM"}, {"measurement": "HIV inhibition", "setting": "HIV-1Ba-L [2]; 1 μM, cells washed with SP prior to HIV challenge", "value": "failed to inhibit HIV infection"}, {"measurement": "inhibition at 1 µM", "setting": "HIV-1Ba-L [2]; Human immunodeficiency virus 1, 1 μM, cells washed with medium alone, mean ± SEM, read-out: protection (HIV inhibition)", "value": "73.9 ± 13.8", "unit": "%"}, {"measurement": "IC50", "setting": "HIV-1Ba-L [3]; [12]", "value": "400 ± 200", "unit": "nM"}, {"measurement": "IC90", "setting": "HIV-1Ba-L [3]; [13]", "value": "1100 ± 300", "unit": "nM"}, {"measurement": "protection of co-cultured T cells by pretreated explant tissue", "setting": "HIV-1Ba-L [3]; [8]", "value": "significant protection"}]}]}
